For 25 molecules, IC50 results are on record in patent US11529341B2, “Bicyclic compounds as inhibitors of PD1/PD-L1 interaction/activation” (JUBILANT PRODEL LLC, priority 2018, dated 2022).

A value given as a limit tells only on which side of the number the result lay.

T1 sequence (Q9NZQ7 19-238 limits assumed): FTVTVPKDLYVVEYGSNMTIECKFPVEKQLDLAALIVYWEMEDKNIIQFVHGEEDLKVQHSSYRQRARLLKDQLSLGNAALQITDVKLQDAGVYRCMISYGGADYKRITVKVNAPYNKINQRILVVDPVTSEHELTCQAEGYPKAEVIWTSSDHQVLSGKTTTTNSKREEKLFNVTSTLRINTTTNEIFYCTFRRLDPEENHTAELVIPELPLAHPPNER

This experiment addresses T1, PD-1/PD-L1 interaction (Homo sapiens, UniProt Q9NZQ7).
T1 construct: Tag1 (undisclosed kit tag); purchased CisBio 63ADK000CPAPEG
Description: PD-1/PD-L1 Homogenous Time-Resolved Fluorescence (HTRF) binding assay (CisBio kit). The conditions noted are these: Biochemical PD1/PD-L1 inhibition. Here is the method:
PD-L1 Enzyme Assay: Homogenous Time-Resolved Fluorescence (HTRF) Binding Assay
All binding studies were performed using PD-1/PD-L1 Binding Assay Kit from CisBio (Catalog #63ADK000CPAPEG), according to the manufacturer's protocol. The interaction between Tag1-PD-1 and […] was detected by anti-Tag1-Eu^3+ (HTRF donor) and anti-Tag2-XL665 (HTRF acceptor). When the donor and acceptor antibodies were brought to close proximity due to PD-1 and PD-L1 binding, excitation of the donor antibody triggered fluorescent resonance energy transfer (FRET) towards the acceptor antibody, which in turn emitted specifically at 665 nm. This specific signal is positively proportional to PD-1/PD-L1 interaction. The compounds blocking PD-1/PD-L1 interaction will cause a reduction in HTRF signal. The necessary reagents were mixed in the following order: 2 μl compounds (or diluents buffer), 4 μl PD-L1 protein, 4 μl PD-1 protein. After an incubation of 15 minutes, 5 μl of anti-Tag1-Eu^3+ and 5 μl of anti-Tag2-XL665 were added. The plate was sealed and incubated at room temperature for 1 h. The fluorescence emission was read at two different wavelengths (665 nm and 620 nm) on a BMG PheraStar® multi-plate reader. Results were calculated from the 665 nm and 620 nm fluorescence signal and expressed in HTRF ratio=(665 nm/620 nm)×10^4.
(Time-resolved FRET reads energy transfer from a long-lived donor to a nearby acceptor.)
As for `Cc1c(COc2cc(OCc3cncc(C#N)c3)c(CNC(CO)(CO)CO)c3c2CCC3)cccc1-c1ccccc1` [Compound 49, 5-(((4-(((1,3-dihydroxy-2-(hydroxymethyl)propan-2-yl)amino)methyl)-7-((2-methyl-[1,1′-biphenyl]-3-yl)methoxy)-2,3-dihydro-1H-inden-5-yl)oxy)methyl)nicotinonitrile], the IC50 (in general, the concentration that gives 50% inhibition) is under 100 nM.
The result for `CC(=O)NCCNCc1c(OCc2cccc(C(N)=O)c2)cc(OCc2cccc(-c3ccccc3)c2C)c2c1CCC2` [Compound 95, 3-(((4-(((2-acetamidoethyl)amino)methyl)-7-((2-methyl-[1,1′-biphenyl]-3-yl)methoxy)-2,3-dihydro-1H-inden-5-yl)oxy)methyl)benzamide] reads under 100 nM.
`Cc1c(COc2cc(OCCCCC#N)c(CN3C[C@H](O)C[C@H]3C(=O)O)c3c2CCC3)cccc1-c1ccccc1` [Compound 81, (2S,4R)-1-((5-(4-cyanobutoxy)-7-((2-methyl-[1,1′-biphenyl]-3-yl)methoxy)-2,3-dihydro-1H-inden-4-yl)methyl)-4-hydroxypyrrolidine-2-carboxylic acid] had a concentration for half-maximal inhibition (IC50) of under 100 nM.
The result for `CC(=O)NCCNCc1c(OCc2ccc(C#N)cc2)cc(OCc2cccc(-c3ccccc3)c2C)c2c1CCC2` [Compound 54, N-(2-(((5-((4-cyanobenzyl)oxy)-7-((2-methyl-[1,1′-biphenyl]-3-yl)methoxy)-2,3-dihydro-1H-inden-4-yl)methyl)amino)ethyl)acetamide] reads 100 to 500 nM; that for `CC(=O)N(C)CCNCc1c(OCc2cccc(C#N)c2)cc(OCc2cccc(-c3ccccc3)c2C)c2c1CCC2` [Compound 13, N-(2-(((5-((3-cyanobenzyl)oxy)-7-((2-methyl-[1,1′-biphenyl]-3-yl)methoxy)-2,3-dihydro-1H-inden-4-yl)methyl)amino)ethyl)-N-methylacetamide], under 100 nM.
The result for `CC(=O)NCCNCc1c(OCc2cncc(F)c2)cc(OCc2cccc(-c3ccccc3)c2C)c2c1CCC2` [Compound 10, N-(2-(((5-((5-fluoropyridin-3-yl)methoxy)-7-((2-methyl-[1,1′-biphenyl]-3-yl)methoxy)-2,3-dihydro-1H-inden-4-yl)methyl)amino)ethyl)acetamide] reads under 100 nM; that for `Cc1c(COc2cc(OCc3cccc(C#N)c3)c(CNCCCC(=O)O)c3c2CCC3)cccc1-c1ccccc1` [Compound 44, 4-(((5-((3-cyanobenzyl)oxy)-7-((2-methyl-[1,1′-biphenyl]-3-yl)methoxy)-2,3-dihydro-1H-inden-4-yl)methyl)amino)butanoic acid], under 100 nM.
The result for `Cc1c(COc2cc(OCc3cccc(C#N)c3)c(CN(C)C)c3c2CCC3)cccc1-c1ccccc1` [Compound 92, 3-(((4-((dimethylamino)methyl)-7-((2-methyl-[1,1′-biphenyl]-3-yl)methoxy)-2,3-dihydro-1H-inden-5-yl)oxy)methyl)benzonitrile] reads under 100 nM; that for `Cc1c(COc2ccc(CN(C)CC(=O)O)c3c2CCC3)cccc1-c1ccccc1` [Compound 22, N-methyl-N-((7-((2-methyl-[1,1′-biphenyl]-3-yl)methoxy)-2,3-dihydro-1H-inden-4-yl)methyl)glycine], 100 to 500 nM.
Consider `Cc1c(COc2cc(OCc3cccc(C(N)=O)c3)c(CN3CCCC[C@H]3C(=O)O)c3c2CCC3)cccc1-c1ccccc1` [Compound 88, (S)-1-((5-((3-carbamoylbenzyl)oxy)-7-((2-methyl-[1,1′-biphenyl]-3-yl)methoxy)-2,3-dihydro-1H-inden-4-yl)methyl)piperidine-2-carboxylic acid], for which the concentration for half-maximal inhibition (IC50) lay in the range of 100 to 500 nM.
The result for `Cc1c(COc2c(Cl)cc(CN3CCCC[C@H]3C(=O)O)c3c2CCC3)cccc1-c1ccccc1` [Compound 5, (S)-1-((6-chloro-7-((2-methyl-[1,1′-biphenyl]-3-yl)methoxy)-2,3-dihydro-1H-inden-4-yl)methyl)piperidine-2-carboxylic acid] reads 100 to 500 nM; that for `Cc1c(COc2ccc(CNC(C)CC(=O)O)c3c2CCC3)cccc1-c1ccccc1` (stereo not shown) [Compound 23, 3-(((7-((2-methyl-[1,1′-biphenyl]-3-yl)methoxy)-2,3-dihydro-1H-inden-4-yl)methyl)amino)butanoic acid], over 500 nM.
The result for `Cc1c(COc2cc(OCc3cccc(C#N)c3)c(CN3C[C@H](O)C[C@H]3C(=O)O)c3c2CCC3)cccc1-c1ccccc1` [Compound 35, (2S,4R)-1-((5-((3-cyanobenzyl)oxy)-7-((2-methyl-[1,1′-biphenyl]-3-yl)methoxy)-2,3-dihydro-1H-inden-4-yl)methyl)-4-hydroxypyrrolidine-2-carboxylic acid] reads under 100 nM.
The result for `Cc1c(COc2cc(OCc3cccc(C#N)c3)c(CN3CC4(COC4)C3)c3c2CCC3)cccc1-c1ccccc1` [Compound 39, 3-(((4-((2-oxa-6-azaspiro[3.3]heptan-6-yl)methyl)-7-((2-methyl-[1,1′-biphenyl]-3-yl)methoxy)-2,3-dihydro-1H-inden-5-yl)oxy)methyl)benzonitrile] reads 100 to 500 nM; that for `CC(=O)NCCNCc1c(OCc2cccc(C#N)c2)cc(OCc2cccc(-c3ccccc3C)c2C)c2c1CCC2` [Compound 86, N-(2-(((5-((3-cyanobenzyl)oxy)-7-((2,2′-dimethyl-[1,1′-biphenyl]-3-yl)methoxy)-2,3-dihydro-1H-inden-4-yl)methyl)amino)ethyl)acetamide], 100 to 500 nM; that for `Cc1c(COc2ccc(CN3CCCC[C@H]3C(=O)O)c3c2CCC3)cccc1-c1cccc2c1ccn2CCCN1CCC(F)(F)C1` [Compound 3, (S)-1-((7-((3-(1-(3-(3,3-difluoropyrrolidin-1-yl)propyl)-1H-indol-4-yl)-2-methylbenzyl)oxy)-2,3-dihydro-1H-inden-4-yl)methyl)piperidine-2-carboxylic acid], over 500 nM.
Consider `CC(=O)NCCNCc1ccc(OCc2cccc(-c3ccccc3)c2C)c2c1CCC2` [Compound 16, N-(2-(((7-((2-methyl-[1,1′-biphenyl]-3-yl)methoxy)-2,3-dihydro-1H-inden-4-yl)methyl)amino)ethyl)acetamide], for which the concentration for half-maximal inhibition (IC50) is over 500 nM.
The result for `N#Cc1cncc(COc2cc(OCc3cccc(-c4ccccc4)c3C#N)c3c(c2CN2C[C@H](O)C[C@H]2C(=O)O)CCC3)c1` [Compound 70, (2S,4R)-1-((7-((2-cyano-[1,1′-biphenyl]-3-yl)methoxy)-5-((5-cyanopyridin-3-yl)methoxy)-2,3-dihydro-1H-inden-4-yl)methyl)-4-hydroxypyrrolidine-2-carboxylic acid] reads under 100 nM; that for `COc1cc(OCc2cccc(-c3ccccc3)c2C#N)c2c(c1CN1C[C@H](O)C[C@H]1C(=O)O)CCC2` [Compound 57, (2S,4R)-1-((7-((2-cyano-[1,1′-biphenyl]-3-yl)methoxy)-5-methoxy-2,3-dihydro-1H-inden-4-yl)methyl)-4-hydroxypyrrolidine-2-carboxylic acid], under 100 nM; that for `Cc1c(COc2cc(OCc3cncc(C#N)c3)c(CN3C[C@H](O)C[C@H]3C(=O)O)c3c2CCC3)cccc1-c1ccccc1` [Compound 47, (2S,4R)-1-((5-((5-cyanopyridin-3-yl)methoxy)-7-((2-methyl-[1,1′-biphenyl]-3-yl)methoxy)-2,3-dihydro-1H-inden-4-yl)methyl)-4-hydroxypyrrolidine-2-carboxylic acid], under 100 nM.
As to `Cc1c(COc2cc(OCc3cccc(C#N)c3)c(CNCC(=O)O)c3c2CCC3)cccc1-c1ccccc1` [Compound 41, ((5-((3-cyanobenzyl)oxy)-7-((2-methyl-[1,1′-biphenyl]-3-yl)methoxy)-2,3-dihydro-1H-inden-4-yl)methyl)glycine], the IC50 is under 100 nM.
With `CC(=O)NCCN(C)Cc1c(OCc2cccc(C#N)c2)cc(OCc2cccc(-c3ccccc3)c2C)c2c1CCC2` [Compound 53, N-(2-(((5-((3-cyanobenzyl)oxy)-7-((2-methyl-[1,1′-biphenyl]-3-yl)methoxy)-2,3-dihydro-1H-inden-4-yl)methyl)(methyl)amino)ethyl)acetamide], the IC50 was under 100 nM.
The result for `CC(=O)NCCNCc1c(OCc2cncc(C(=O)O)c2)cc(OCc2cccc(-c3ccccc3)c2C)c2c1CCC2` [Compound 93, 5-(((4-(((2-acetamidoethyl)amino)methyl)-7-((2-methyl-[1,1′-biphenyl]-3-yl)methoxy)-2,3-dihydro-1H-inden-5-yl)oxy)methyl)nicotinic acid] reads under 100 nM; that for `COc1cc(OCc2cccc(-c3cccc(OCCCN4CCC(F)(F)C4)c3C)c2C)c2c(c1CN1CCCC[C@H]1C(=O)O)CCC2` [Compound 7, (S)-1-((7-((3′-(3-(3,3-difluoropyrrolidin-1-yl)propoxy)-2,2′-dimethyl-[1,1′-biphenyl]-3-yl)methoxy)-5-methoxy-2,3-dihydro-1H-inden-4-yl)methyl)piperidine-2-carboxylic acid], over 500 nM.
The result for `Cc1c(COc2ccc(CN3CC4(COC4)C3)c3c2CCC3)cccc1-c1ccccc1` [Compound 17, 6-((7-((2-methyl-[1,1′-biphenyl]-3-yl)methoxy)-2,3-dihydro-1H-inden-4-yl)methyl)-2-oxa-6-azaspiro[3.3]heptane] reads over 500 nM.
